“Also recorded” adds a separate entry of the source. Where two headings read alike, the source gives them in different places. Square brackets hold non-standard residues; d marks the D form. Peptide text beside a SMILES is read from it. Sar = CNCC(=O)O
How the values were obtained:
PepT1 [1] = biological target: T1, PepT1 (Mus musculus, UniProt Q9JIP7); assay: Co-perfusion of cefadroxil with dimethyl-amiloride; settings: 0.1 mM DMA co-perfused with 10 μM cefadroxil, pH 6.5, wild-type mice
T1 sequence (Q9JIP7 1-709): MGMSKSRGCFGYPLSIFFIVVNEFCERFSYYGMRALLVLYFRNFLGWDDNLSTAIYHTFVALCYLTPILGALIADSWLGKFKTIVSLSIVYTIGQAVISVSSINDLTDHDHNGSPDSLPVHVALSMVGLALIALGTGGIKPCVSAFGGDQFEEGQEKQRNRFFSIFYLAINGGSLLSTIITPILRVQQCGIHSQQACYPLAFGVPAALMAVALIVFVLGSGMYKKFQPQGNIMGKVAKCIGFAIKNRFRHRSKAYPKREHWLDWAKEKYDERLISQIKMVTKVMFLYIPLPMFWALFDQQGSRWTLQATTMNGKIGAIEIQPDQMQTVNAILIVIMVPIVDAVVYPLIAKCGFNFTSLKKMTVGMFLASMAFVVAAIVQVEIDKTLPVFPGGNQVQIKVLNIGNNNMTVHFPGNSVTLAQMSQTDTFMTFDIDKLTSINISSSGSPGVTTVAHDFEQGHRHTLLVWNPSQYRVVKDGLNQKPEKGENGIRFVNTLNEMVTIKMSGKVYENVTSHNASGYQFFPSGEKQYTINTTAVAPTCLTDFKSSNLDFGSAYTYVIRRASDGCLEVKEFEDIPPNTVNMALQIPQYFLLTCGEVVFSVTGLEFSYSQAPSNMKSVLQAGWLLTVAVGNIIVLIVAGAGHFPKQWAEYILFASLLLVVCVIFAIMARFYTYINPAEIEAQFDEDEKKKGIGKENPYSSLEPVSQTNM

PepT1 [2] = biological target: T1, PepT1; settings: 25 mM inhibitor co-perfused with 10 μM cefadroxil, pH 6.5, wild-type mice
PepT1 [3] = settings: cited from earlier work
[4] = after oral dipeptide administration; cited from earlier work
PepT1 [5] = biological target: T1, PepT1; format: in vivo, mice; settings: wild-type mice, 10 μM cefadroxil, pH 6.5
PepT1 [6] = format: in vivo, mice; settings: for Peff: 10 μM cefadroxil, pH 6.5
PepT1 [7] = biological target: T1, PepT1; assay: pH-dependent jejunal permeability of cefadroxil, in situ perfusion; format: in vivo; settings: 10 μM cefadroxil, jejunum, wild-type mice, pH 5.5 to 7.5
[8] = mouse, in vivo, po
[9] = cited from earlier work
[10] = cited from earlier work; remark: listed apart in the source
PepT1 [11] = settings: PepT1 cRNA-injected Xenopus oocytes; cited from earlier work
Caco-2 cells = settings: cited from earlier work
[12] = in situ perfusions in proximal small intestine, cited from earlier work
PepT1 [13] = biological target: T1, PepT1; settings: jejunum, wild-type mice, pH 6.5

With `CN(C)c1nc(N)c(C(=O)NC(=N)N)nc1Cl` [DMA, 5-(N,N-dimethyl)amiloride] the “effect on PepT1-mediated jejunal permeability/uptake of cefadroxil” value (PepT1 [1]) was “inhibited” and the “reduction of cefadroxil permeability” value (PepT1 [1]) was “about 60%”.

With `NCC(=O)O` [Gly, glycine] the “effect on jejunal effective permeability of cefadroxil” value (PepT1 [2]) was “no significant effect”.

In the case of `NCC(=O)N1CCC[C@H]1C(=O)O` [GlyPro, glycylproline] (H-Gly-Pro-OH), the “effect on jejunal effective permeability of cefadroxil” value (PepT1 [2]) is reported as “significantly decreased”.

In the case of `CN(CC(=O)O)C(=O)CN` [GlySar, glycylsarcosine] (H-Gly-[Sar]-OH), the increase of permeability (PepT1 [3]; pH 5.5, in situ perfusion, mice) is listed as 36%, the “reduction (systemic exposure) in PepT1 knockout vs. wild-type mice” value [4] is listed as roughly 2 fold and the “effect on jejunal effective permeability of cefadroxil” value (PepT1 [2]) is listed as “significantly decreased”.

For `N[C@@H](Cc1c[nH]cn1)C(=O)O` [L-His, L-histidine], the “effect on jejunal effective permeability of cefadroxil” value (PepT1 [2]) was “no significant effect”.

For `CNC(=O)c1cccnc1` [NMN, N-methylnicotinamide], the “effect on jejunal effective permeability of cefadroxil” value (PepT1 [2]) was “no significant effect”.

In the case of `CC[N+](CC)(CC)CC` [TEA], the “effect on jejunal effective permeability of cefadroxil” value (PepT1 [2]) is reported as “lack of effect”.

For `CC1=C(C(=O)O)N2C(=O)[C@@H](NC(=O)[C@H](N)c3ccc(O)cc3)[C@H]2SC1` [cefadroxil], the Peff (PepT1 [5]; duodenum) was 49 ×10⁻⁶ cm/s, the Peff (PepT1 [5]; ileum) was 88 ×10⁻⁶ cm/s and the Peff (PepT1 [5]; jejunum) was 80 ×10⁻⁶ cm/s. For the same compound, the Peff (PepT1 [6]; PepT1 knockout mice, colon) was 3.2 ×10⁻⁶ cm/s, the Peff (PepT1 [6]; PepT1 knockout mice, ileum) was 4.2 ×10⁻⁶ cm/s and the Peff (PepT1 [6]; PepT1 knockout mice, jejunum) was 9 ×10⁻⁶ cm/s. For the same compound, the “difference between genotypes in the permeability in colon” value (PepT1 [6]; colon, wild-type vs PepT1 knockout) was “no significant difference”, the “permeability in PepT1 knockout mice as compared to wild-type mice” value (“permeability … compared to wild-type mice” below) (PepT1 [6]; duodenum) was 4% and the “permeability … compared to wild-type mice” value (PepT1 [6]; ileum) was 5%. For the same compound, the “permeability … compared to wild-type mice” value (PepT1 [6]; jejunum) was 12%, the Peff (PepT1 [6]; wild-type mice, colon) was 6.4 ×10⁻⁶ cm/s and the “effect of perfusate pH on effective permeability” value (PepT1 [7]) was “no significant differences; also recorded: not significantly affected”. The “Tmax increase, PepT1 knockout vs wild-type” value [8] was roughly 4 fold, the half-life [9] was ~ 95 min and the “binding to plasma proteins” value [10] was “about 20%”. The Michaelis constant (PepT1 [11]) was 1.1 mM, the decrease of uptake (Caco-2 cells; further reducing the pH to 5.5) was 50% and the “increase of drug uptake” value (Caco-2 cells; shifting the pH from 7.4 to 6.0) was “about 4 fold”. For the same compound, the “effect on jejunal permeability of GlySar” value (PepT1 [3]; co-perfusion of cefadroxil at saturating concentrations, wild-type mice) was “significantly reduced”, the Michaelis constant ([12]; ref 12) was 5.9 mM and the Michaelis constant ([12]; ref 13) was 6.6 mM. For the same compound, the “K′m (apparent)” value (PepT1 [13]; based on bulk fluid (inlet) concentrations) was 3.8 ± 1.2 mM and the “Vmax (intrinsic)” value (PepT1 [13]; referenced to membrane surface concentration Cw) was 4.5 ± 0.3 nmol/cm^2/sec.

For `CC(=O)OCC1=C(C(=O)O)N2C(=O)[C@@H](NC(=O)Cc3cccs3)[C@H]2SC1` [cephalothin], the “effect on jejunal effective permeability of cefadroxil” value (PepT1 [2]) was “not affected; also recorded: no significant effect; also recorded: lack of effect”.
